Key:
Conditions in all cases: male, Sprague-Dawley, rat, iv, 1 mg/kg
[1] = in vivo
[2] = in vivo; remark: listed apart in the source
[3] = in vivo; remark: listed apart in the source
[4] = in vivo; remark: listed apart in the source

Vd at 8 h [1]: 1.11 L/kg
AUC(0-t) at 8 h [2]: 1190 ng·h/mL
clearance at 8 h [3]: 14 mL/min/kg
half-life at 8 h [4]: 1.1 h
Compound: COc1cc(F)ccc1-c1cc(Nc2cc(CS(C)(=N)=O)ccn2)ncc1F (centres undefined) [ENITOCICLIB]

Source: ChEMBL document CHEMBL6109151, “Discovery of a Novel Dihydroisoquinolinone Derivative as a Potent CDK9 Inhibitor Capable of Overcoming L156F Mutant for the Treatment of Hematologic Malignancies” (J Med Chem, 2025)
